Reference: patent publication US8492374B2, “Azaazulene compounds” (Industrial Technology Research Institute, priority 2009, dated 2013)

Key:
[1] = tested on: MV4-11 (FLT3-ITD) cell line; test: In vitro cell activity assay (MTT cell viability, 72 hours); format: cell-based; conditions: Homo sapiens, 72 hours at 37° C., 10,000 cells per well, read-out: IC50 against MV4-11
Description: Human MV4-11 (FLT3-ITD) cell line was obtained from American Tissue Culture Collection (ATCC number: CRL-9591). The cell line was cultured with RPMI 1640 containing 10% fetal bovine serum, 1 mmol/L sodium pyruvate and 10 mmol/L HEPES (pH 7.4). The cell was grown and maintained in a humidified atmosphere at 37° C. and 5% carbon dioxide.
MV4-11 cell was plated in 96-well microtiter plates (10,000 cells per well) and serial dilutions of indicated compounds were added. At the end of the incubation period (72 hours at 37° C.), cell viability was determined by a tetrazolium dye, MTT (3-(4,5-dimethylthiazol-2-yl)-2,5-diphenyl tetrazolium bromide) (Promega, Madison, Wis.). The formazan crystals were dissolved by DMSO, and the absorbance at a wavelength of 600 nm was recorded using an ELISA plate reader. IC50 values were calculated using nonlinear regression and defined as the concentration needed for a 50% reduction in absorbance of treated versus untreated control cells.

FLT-3 kinase = target: T1, FLT-3 kinase (Homo sapiens, UniProt P36888); test: FLT-3 kinase DELFIA assay (HTScan FLT-3 Kinase Assay Kit); format: biochemical; conditions: 20 uM ATP; for inhibition at 0.1 µM: 0.1 uM compound; for inhibition at 1 µM: 1 uM compound
T1 construct: human FLT-3 (Arg571-Ser993); GST (N); purchased Cell Signaling Technology HTScan FLT-3 Kinase Assay Kit; host or cells: baculovirus expression system
T1 sequence (P36888 571-993): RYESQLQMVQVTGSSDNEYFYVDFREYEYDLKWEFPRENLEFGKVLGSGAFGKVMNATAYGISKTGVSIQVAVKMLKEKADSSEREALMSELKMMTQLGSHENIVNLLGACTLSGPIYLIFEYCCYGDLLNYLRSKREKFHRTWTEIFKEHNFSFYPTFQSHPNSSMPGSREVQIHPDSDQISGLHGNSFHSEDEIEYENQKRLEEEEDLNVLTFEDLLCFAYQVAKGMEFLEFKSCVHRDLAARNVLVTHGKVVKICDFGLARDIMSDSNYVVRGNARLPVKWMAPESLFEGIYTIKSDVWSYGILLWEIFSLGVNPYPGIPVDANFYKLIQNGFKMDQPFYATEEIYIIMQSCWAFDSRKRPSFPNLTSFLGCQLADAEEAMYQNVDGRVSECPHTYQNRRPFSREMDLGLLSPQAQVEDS
Description: Azaazulene Compounds of this invention were treated for their efficacy in inhibiting activities of FLT-3, c-KIT and KDR kinases by biochemical DELFIA (Dissociation Enhanced Lanthanide FIA) assays according to the procedure described below. The assays were conducted by, Division of Cell Engineering, Biomedical Engineering Research Laboratories, Industrial Technology Research Institute, Bldg. 53, 195, sec. 4, Chung Hsing Rd. Chutung, Hsinchu, Taiwan 310, R.O.C.
The FLT-3 assay was conducted following the protocol described in Protocol for HTScang FLT-3 Kinase Assay Kit (Cell Signaling Technology®).

| IC50 [1] | inhibition at 0.1 µM (FLT-3 kinase) | inhibition at 1 µM (FLT-3 kinase) | Compound |
| --- | --- | --- | --- |
| 1000 to 5000 nM | – | – | O=c1[nH]c2cccccc-2c1-c1nc2cc(F)c(F)cc2[nH]1 [Compound B3] |
| 1000 to 5000 nM | 8.9% | 20.3% | O=c1[nH]c2cccccc-2c1-c1nc2cc(Cl)cnc2[nH]1 [Compound B10] |
| > 5000 nM | 4.5% | 1.6% | O=c1[nH]c2cccccc-2c1-c1cn2cccnc2n1 [Compound B12] |
| > 5000 nM | 4.8% | 16.5% | O=c1[nH]c2cccccc-2c1-c1cn2ccc(Cl)cc2n1 [Compound B16] |
| 1000 to 5000 nM | 4.9% | 23.4% | O=c1[nH]c2cccccc-2c1-c1cn2cc(Br)ccc2n1 [Compound B17] |
| – | 16.4% | 40.2% | O=c1[nH]c2cccccc-2c1-c1nc2cc3ccccc3cc2[nH]1 [Compound B18] |
| 1000 to 5000 nM | 14.7% | 28.6% | N#Cc1ccc2[nH]c(-c3c4cccccc-4[nH]c3=O)nc2c1 [Compound B19] |
| 1000 to 5000 nM | 16.7% | 33.3% | CC(C)(C)OC(=O)Nc1ccc2[nH]c(-c3c4cccccc-4[nH]c3=O)nc2c1 [Compound B20] |
| 42.9 nM | 29.1% | 83.9% | O=c1[nH]c2cccccc-2c1-c1nc2cc(N3CCNCC3)ccc2[nH]1 [Compound B22] |
| 34.4 nM | 41.2% | 91.5% | O=c1[nH]c2cccccc-2c1-c1nc2cc(N3CCNCC3)ccc2n1CC(F)(F)F [Compound B23] |
| 75 nM | 19.1% | 71.5% | CC1CN(c2ccc3[nH]c(-c4c5cccccc-5[nH]c4=O)nc3c2)CC(C)N1 (centres unmarked) [Compound B24] |
| 375 nM | – | – | CN1CCN(c2ccc3[nH]c(-c4c5cccccc-5[nH]c4=O)nc3n2)CC1 [Compound B27] |
| 96.3 nM | – | – | CCN1CCN(c2ccc3[nH]c(-c4c5cccccc-5[nH]c4=O)nc3c2)CC1 [Compound B28] |
| 1000 to 5000 nM | 8% | 8.1% | CCN(CC)CCCCn1c2cccccc-2c(-c2nc3cc(N4CCN(C)CC4)ccc3[nH]2)c1=O [Compound B32] |
| 54.2 nM | 58.7% | 96.6% | CN(C)CCCN1CCN(c2ccc3[nH]c(-c4c5cccccc-5[nH]c4=O)nc3c2)CC1 [Compound B33] |
| 151 nM | 40.2% | 85.4% | CCCCN(CCCC)CCN1CCN(c2ccc3[nH]c(-c4c5cccccc-5[nH]c4=O)nc3c2)CC1 [Compound B34] |
| 159 nM | 42% | 86.7% | CN1CCC(N2CCN(c3ccc4[nH]c(-c5c6cccccc-6[nH]c5=O)nc4c3)CC2)CC1 [Compound B35] |
| 151 nM | 24.8% | 64% | O=c1[nH]c2cccccc-2c1-c1nc2cc(N3CCN(CCO)CC3)ccc2[nH]1 [Compound B36] |
| 118 nM | 21.8% | 69.2% | O=c1[nH]c2cccccc-2c1-c1nc2cc(N3CCN(CCF)CC3)ccc2[nH]1 [Compound B38] |
| 62.2 nM | 24.3% | 78.6% | O=c1[nH]c2cccccc-2c1-c1nc2cc(N3CCN(CCCF)CC3)ccc2[nH]1 [Compound B39] |
| 72.3 nM | 38.2% | 88.1% | O=c1[nH]c2cccccc-2c1-c1nc2cc(N3CCN(C[C@@H](O)CO)CC3)ccc2[nH]1 [Compound B40] |
| 1000 to 5000 nM | 33.5% | 67.2% | O=c1[nH]c2cccccc-2c1-c1nc2cc(N3CCN(Cc4ccc5ccccc5c4)CC3)ccc2[nH]1 [Compound B43] |
| 190 nM | 29% | 79.1% | O=c1[nH]c2cccccc-2c1-c1nc2cc(N3CCN(Cc4ccccc4)CC3)ccc2[nH]1 [Compound B44] |
| 318 nM | 27.3% | 77% | CN(C)c1ccc(CN2CCN(c3ccc4[nH]c(-c5c6cccccc-6[nH]c5=O)nc4c3)CC2)cc1 [Compound B45] |

| IC50 [1] | inhibition at 0.1 µM (FLT-3 kinase) | inhibition at 1 µM (FLT-3 kinase) | Compound |
| --- | --- | --- | --- |
| 314 nM | 27.4% | 79.2% | O=c1[nH]c2cccccc-2c1-c1nc2cc(N3CCN(Cc4ccc(Br)o4)CC3)ccc2[nH]1 [Compound B46] |
| 300 nM | – | – | O=c1[nH]c2cccccc-2c1-c1nc2cc(N3CCN(Cc4ccncc4)CC3)ccc2[nH]1 [Compound B47] |
| 148 nM | – | – | O=c1[nH]c2cccccc-2c1-c1nc2cc(N3CCN(Cc4cccnc4)CC3)ccc2[nH]1 [Compound B48] |
| 249 nM | 21.9% | 72.2% | O=c1[nH]c2cccccc-2c1-c1nc2cc(N3CCN(Cc4ccccn4)CC3)ccc2[nH]1 [Compound B49] |
| 50.7 nM | 25.1% | 79.6% | CN1CCN(c2cc3nc(-c4c5cccccc-5[nH]c4=O)[nH]c3cc2F)CC1 [Compound B50] |
| 99.1 nM | 20.6% | 66.6% | CN1CCN(c2ccc3[nH]c(-c4c5cccccc-5[nH]c4=O)nc3c2F)CC1 [Compound B51] |
| 635 nM | 20.3% | 42.5% | CN1CCN(c2c(F)cc3[nH]c(-c4c5cccccc-5[nH]c4=O)nc3c2F)CC1 [Compound B52] |
| 74 nM | 46% | 91.6% | O=CN1CCN(c2ccc3[nH]c(-c4c5cccccc-5[nH]c4=O)nc3c2)CC1 [Compound B54] |
| 93.8 nM | 45.2% | 93.2% | O=C(Nc1ccccc1)N1CCN(c2ccc3[nH]c(-c4c5cccccc-5[nH]c4=O)nc3c2)CC1 [Compound B55] |
| 104 nM | 29.5% | 81.5% | CS(=O)(=O)N1CCN(c2ccc3[nH]c(-c4c5cccccc-5[nH]c4=O)nc3c2)CC1 [Compound B57] |
| 253 nM | – | – | CN1CCCN(c2c(F)cc3[nH]c(-c4c5cccccc-5[nH]c4=O)nc3c2F)CC1 [Compound B86] |
| – | 42.5% | 92.9% | O=c1[nH]c2cccccc-2c1-c1nc2cc(N3CCC(O)CC3)ccc2[nH]1 [Compound B107] |
| – | 36.5% | 84.9% | CN(C)[C@@H]1CCN(c2ccc3[nH]c(-c4c5cccccc-5[nH]c4=O)nc3c2)C1 [Compound B110] |
| – | 36.3% | 62.7% | O=c1[nH]c2cccccc-2c1-c1nc2cc(-n3nccn3)ccc2[nH]1 [Compound B116] |
| 100 to 500 nM | – | – | O=C(Nc1ccccc1)Nc1ccc2[nH]c(-c3c4cccccc-4[nH]c3=O)nc2c1 [Compound B121] |
| > 5000 nM | – | – | O=C(Nc1ccc2[nH]c(-c3c4cccccc-4[nH]c3=O)nc2c1)Nc1c(Cl)cncc1Cl [Compound B122] |
| 1000 to 5000 nM | – | – | CCc1cccc(C)c1NC(=O)Nc1ccc2[nH]c(-c3c4cccccc-4[nH]c3=O)nc2c1 [Compound B123] |
| ~5000 nM | – | – | O=C(Nc1ccc2[nH]c(-c3c4cccccc-4[nH]c3=O)nc2c1)NC1CCCCC1 [Compound B124] |
| 680 nM | – | – | O=C(Nc1ccc2[nH]c(-c3c4cccccc-4[nH]c3=O)nc2c1)Nc1ccccc1F [Compound B125] |
| > 5000 nM | – | – | O=C(Nc1cccc(F)c1)Nc1ccc2[nH]c(-c3c4cccccc-4[nH]c3=O)nc2c1 [Compound B126] |
| ~1000 nM | – | – | O=C(Nc1ccc(F)cc1)Nc1ccc2[nH]c(-c3c4cccccc-4[nH]c3=O)nc2c1 [Compound B127] |
| 1000 to 5000 nM | – | – | O=C(Nc1ccc2[nH]c(-c3c4cccccc-4[nH]c3=O)nc2c1)Nc1ccc(F)cc1F [Compound B128] |
| > 5000 nM | – | – | O=C(Nc1ccc2[nH]c(-c3c4cccccc-4[nH]c3=O)nc2c1)Nc1c(F)cccc1F [Compound B129] |

| Compound | IC50 [1] | inhibition at 0.1 µM (FLT-3 kinase) | inhibition at 1 µM (FLT-3 kinase) |
| --- | --- | --- | --- |
| O=c1[nH]c2cccccc-2c1-c1nc2cc(N3CCN(S(=O)(=O)CCCl)CC3)ccc2[nH]1 [Compound B58] | 67.2 nM | 35.7% | 83.8% |
